≈ marks a conversion by molar mass, not a printed value. Where “and” joins values, the source holds several entries; their conditions need not be identical. Identical values can stand only once. Like-named read-outs stand apart in the source and are kept apart here.
Assays:
[1] = test system: A21978.6; experiment: Antibiotic sensitivity, sensitivity discs on seeded agar plates; assay type: cell-based, Streptomyces roseosporus; details: Conc./disc: erythromycin 15 μg, cephalothin 30 μg, lincomycin 2 μg, nystatin 100 units, polymyxin B 300 units, streptomycin 10 μg, tetracycline 30 μg, vancomycin "+μg"; further: key: +: sensitive (zones of inhibition); -: resistant (no zones of inhibition)
Protocol: (§1) Temperature range, NaCl tolerance, pH range, and antibiotic sensitivity were done using ISP #2 agar medium. The range of temperatures were: 25°, 28°, 30°, 34°, 37°, 40°, 45°, 50° and 55° C. NaCl tolerance was measured by adding NaCl to the agar to equal: 0, 1, 2, 3, 4, 5, 6, 8, 10 and 12%. These were incubated at 30° C. The pH range was measured by adjusting the agar from pH 3.0 to 11.0 at increments of 1.0 pH units, just prior to pouring. Antibiotic sensitivity was determined using sensitivity discs padded onto seeded agar plates.

[2] = test system: S. roseosporus; experiment: as above; assay type: cell-based, Streptomyces roseosporus; details: Conc./disc: erythromycin 15 μg, cephalothin 30 μg, lincomycin 2 μg, nystatin 100 units, polymyxin B 300 units, streptomycin 10 μg, tetracycline 30 μg, vancomycin "+μg"; further: key: +: sensitive (zones of inhibition); -: resistant (no zones of inhibition)
Protocol: as §1, with “NaCl tolerance was measured by adding NaCl to the agar to equal: 0, 1, 2, 3, 4, 5, 6, 8, 10 and 12%.” left out

[3] = test system: Staphylococcus aureus; experiment: MIC, agar dilution (Table XV); assay type: cell-based
From the text: ^1 MIC = minimum inhibitory concentration (μg/ml), agar dilution

[4] = test system: Streptococcus pyogenes; experiment: MIC, agar dilution (Table XV); assay type: cell-based
[5] = test system: Streptococcus pneumoniae; experiment: MIC, agar dilution (Table XV); assay type: cell-based
[6] = test system: Streptococcus faecalis (Guze); experiment: In vitro susceptibility (MIC) of the S. faecalis Guze strain; assay type: cell-based
[7] = test system: Streptococcus faecalis (Guze); experiment: Streptococcus faecalis descending rat pyelonephritis test; assay type: in vivo, rat (female albino, Cox-Wistar)
Protocol: In this test, the bacterial culture used was Streptococcus faecalis (Guze). The culture was grown on Trypticase soy agar (BBL), suspended in brain heart infusion broth (BBL), divided into 0.2-ml portions, and frozen in liquid nitrogen. Bacterial suspensions for rat inoculations were prepared daily by seeding a 50-ml flask of trypticase soy broth (BBL) from a frozen ampoule and growing the culture overnight at 37° C. on a shaker. The S. faecalis culture was diluted to 5×10^8 colony-forming units per ml. Test compounds were injected subcutaneously once daily for seven days. All compounds were suspended in 0.125% carboxymethylcellulose.
The experimental rat infections were accomplished by the following procedure. Female, random-bred albino rats (Cox-Wistar) weighing 190 to 210 g were anesthetized by intraperitoneal injection of 12 mg of sodium methohexital supplemented as necessary. The experimental pyelonephritis model was based on the studies of Guze and Beeson in which the left ureter was occluded for 20 min, followed by injection of 0.5 ml of the test organism in the femoral vein. Antimicrobial therapy was commenced 4 to 5 hrs postinfection. Four hours after the last treatment the rats were sacrificed, and the left kidney was removed and homogenized in a Duall grinder containing 9 ml of physiological saline. This represented a 10^-1 dilution of the kidney tissue. Additional 10-fold dilutions in saline were based on the anticipated bacterial cells present in the tissue homogenate. Finally, duplicate agar pour plates were made from several of these dilutions, and the plates were incubated overnight at 37° C. The therapeutic results were expressed in two ways: (i) the percentage of rats with kidney counts of less than 10^2 per g of kidney tissue, referred to as "cures," and (ii) the percentage of rats with at least a 4-log10 reduction in bacterial titer compared with infected control kidneys. Control rats were treated with 0.125% carboxymethylcellulose only. Viable cell counts in kidney tissue from control rats with S. faecalis ranged from 1.2×10^8 to 4.6×10^8 per g of homogenized tissue.

[8] = Electrometric titration in 66% aqueous dimethylformamide; assay type: physicochemical; details: 66% DMF; Na salt; factors: two determinations
[9] = test system: pathogenic organisms, particularly gram-positive bacteria; experiment: Inhibition of growth of pathogenic organisms; assay type: cell-based
[10] = test system: Staphylococcus aureus 3055; experiment: MIC, standard agar-dilution test; assay type: cell-based; details: Table XI, sodium salt
[11] = test system: Group D Streptococcus 282; experiment: MIC, standard agar-dilution test; assay type: cell-based; details: Table XI, sodium salt
[12] = test system: Streptococcus pyogenes C203; experiment: MIC, standard agar-dilution test; assay type: cell-based; details: Table XI, sodium salt
[13] = test system: Streptococcus pneumoniae Park I; experiment: MIC, standard agar-dilution test; assay type: cell-based; details: Table XI, sodium salt
[14] = test system: Viridans Streptococcus 9943; experiment: MIC, standard agar-dilution test; assay type: cell-based; details: Table XI, sodium salt
[15] = test system: Neisseria gonorrhoeae 111076-4; experiment: MIC, standard agar-dilution test; assay type: cell-based; details: Table XI, sodium salt
[16] = test system: Staphylococcus aureus 3055; experiment: MIC, standard broth-dilution test; assay type: cell-based; details: Table XII, sodium salt
[17] = test system: Group D Streptococcus 282; experiment: MIC, standard broth-dilution test; assay type: cell-based; details: Table XII, sodium salt
[18] = test system: Streptococcus pyogenes C203; experiment: MIC, standard broth-dilution test; assay type: cell-based; details: Table XII, sodium salt
[19] = test system: Streptococcus pneumoniae Park I; experiment: MIC, standard broth-dilution test; assay type: cell-based; details: Table XII, sodium salt
[20] = test system: Viridans Streptococcus 9943; experiment: MIC, standard broth-dilution test; assay type: cell-based; details: Table XII, sodium salt
[21] = test system: Actinomyces isaelii; experiment: MIC anaerobic bacteria, standard agar-dilution test; assay type: cell-based
[22] = test system: Clostridium perfringens; assay type: cell-based; details: anaerobic, agar-dilution
[23] = test system: Clostridium septicum; experiment: MIC anaerobic bacteria, standard agar-dilution test; assay type: cell-based
[24] = test system: Eubacterium aerofaciens; experiment: as above; assay type: cell-based
[25] = test system: Peptococcus asaccharolyticus; experiment: as above; assay type: cell-based
[26] = test system: Peptococcus prevoti; experiment: as above; assay type: cell-based
[27] = test system: Peptostreptococcus anaerobius; experiment: as above; assay type: cell-based
[28] = test system: Peptostreptococcus intermedius; experiment: as above; assay type: cell-based
[29] = test system: Propionibacterium acnes; experiment: as above; assay type: cell-based
[30] = test system: Bacteroides fragilis; experiment: as above; assay type: cell-based
[31] = test system: Fusobacterium symbiosum; experiment: as above; assay type: cell-based
[32] = test system: Fusobacterium necrophorum; experiment: as above; assay type: cell-based
[33] = test system: Staphylococcus aureus; experiment: Experimental bacterial infection in mice, ED50; assay type: in vivo; details: two doses, subcutaneous administration
Protocol: (§2) When two doses of test compound were administered to mice in illustrative infections, the activity observed was measured as an ED50 value [effective dose in mg/kg to protect fifty percent of the test animals: See Warren Wick, et al., J. Bacteriol. 81, 233-235 (1961)].

[34] = test system: Streptococcus pneumoniae; experiment: Experimental bacterial infection in mice, ED50; assay type: in vivo; details: two doses, subcutaneous administration
Protocol: as §2

[35] = test system: Streptococcus pyogenes; experiment: Experimental bacterial infection in mice, ED50; assay type: in vivo; details: two doses
Protocol: as §2

[36] = Toxicity (LD50) in mouse; assay type: in vivo
[37] = Toxicity (LD50) in rat; assay type: in vivo; details: IV
[38] = test system: Micrococcus luteus; experiment: Bioassay, paper-disc agar-diffusion; details: Na salts; Table VIII

In the case of CC[C@H]1OC(=O)[C@H](C)[C@@H](O[C@H]2C[C@@](C)(OC)[C@@H](O)[C@H](C)O2)[C@H](C)[C@@H](O[C@@H]2O[C@H](C)C[C@H](N(C)C)[C@H]2O)[C@](C)(O)C[C@@H](C)C(=O)[C@H](C)[C@@H](O)[C@]1(C)O [Erythromycin, reference compound], the Antibiotic sensitivity [1] is reported as “+”, the Antibiotic sensitivity [2] is reported as “+” and the MIC ([3]; Staphylococcus aureus, read-out: MIC) is reported as 0.13 µg/mL (≈ 0.177 µM). For the same molecule, the MIC ([4]; Streptococcus pyogenes, read-out: MIC) was 0.13 µg/mL (≈ 0.177 µM) and the MIC ([5]; Streptococcus pneumoniae, read-out: MIC) was 0.5 µg/mL (≈ 0.681 µM).
With CN[C@H](CC(C)C)C(=O)N[C@H]1C(=O)N[C@@H](CC(N)=O)C(=O)N[C@H]2C(=O)N[C@H]3C(=O)N[C@H](C(=O)N[C@H](C(=O)O)c4cc(O)cc(O)c4-c4cc3ccc4O)[C@H](O)c3ccc(c(Cl)c3)Oc3cc2cc(c3O[C@@H]2O[C@H](CO)[C@@H](O)[C@H](O)[C@H]2O[C@H]2C[C@](C)(N)[C@H](O)[C@H](C)O2)Oc2ccc(cc2Cl)[C@H]1O [Vancomycin, reference compound] the Antibiotic sensitivity [1] was “+”, the Antibiotic sensitivity [2] was “+” and the MIC ([6]; Enterococcus faecalis) was 1 µg/mL (≈ 0.69 µM). The “Percent of Rats Cured” value ([7]; 12.0 mg/kg × 7, subcutaneous) was 33% and the “Percent of Rats with a 4-Log Titer Decrease” value ([7]; 12.0 mg/kg × 7, subcutaneous) was 55%.
For CN(C)C1C(=O)C(C(N)=O)=C(O)C2(O)C(=O)C3=C(O)c4c(O)cccc4C(C)(O)C3CC12 (stereo not shown) [Tetracycline], the Antibiotic sensitivity [1] was “+” and the Antibiotic sensitivity [2] was “+”.
For CCC(C)CCCCCCCCC(=O)N[C@@H](Cc1c[nH]c2ccccc12)C(=O)N[C@@H](CC(N)=O)C(=O)N[C@@H](CC(=O)O)C(=O)N[C@@H]1C(=O)NCC(=O)N[C@@H](CCCN)C(=O)N[C@@H](CC(=O)O)C(=O)N[C@H](C)C(=O)N[C@@H](CC(=O)O)C(=O)NCC(=O)N[C@H](CO)C(=O)N[C@@H]([C@H](C)CC(=O)O)C(=O)N[C@@H](CC(=O)c2ccccc2N)C(=O)O[C@@H]1C (stereo partly shown) [Factor C3], the “pKa (first group)” value [8] was 5.73 and 5.75, the “pKa (second group)” value [8] was 7.54 and 7.58 and the growth inhibition [9] was “inhibit the growth of certain pathogenic organisms, particularly gram-positive bacteria”. The MIC [10] was 0.06 µg/mL, the MIC [11] was 0.13 µg/mL and the MIC [12] was 0.25 µg/mL. It also gave an MIC [13] of 0.13 µg/mL, an MIC [14] of 0.5 µg/mL and an MIC [15] of 4.0 µg/mL. The MIC [16] was 0.13 µg/mL, the MIC [17] was 0.13 µg/mL and the MIC [18] was 0.13 µg/mL. For the same molecule, the MIC [19] was 0.5 µg/mL, the MIC [20] was 32.0 µg/mL and the MIC [21] was 1.0 µg/mL (≈ 0.601 µM). For the same molecule, the MIC [22] was 8 µg/mL (≈ 4.81 µM), the MIC [23] was 1.0 µg/mL (≈ 0.601 µM) and the MIC [24] was 4 µg/mL (≈ 2.41 µM). For the same molecule, the MIC [25] was 1.0 µg/mL (≈ 0.601 µM), the MIC [26] was < 0.5 µg/mL and the MIC [27] was 1.0 µg/mL (≈ 0.601 µM). The MIC [28] was < 0.5 µg/mL, the MIC [29] was 1.0 µg/mL (≈ 0.601 µM) and the MIC [30] was > 128 µg/mL. For the same molecule, the MIC [31] was 16 µg/mL (≈ 9.62 µM), the MIC [32] was 32 µg/mL (≈ 19.2 µM) and the MIC [3] was 0.06 µg/mL (≈ 0.0361 µM). The MIC [4] was 0.06 µg/mL (≈ 0.0361 µM), the MIC [5] was 0.03 µg/mL (≈ 0.018 µM) and the ED50 [33] was 0.08 mg/kg. For the same molecule, the ED50 [34] was 0.09 mg/kg, the ED50 [35] was 0.032 mg/kg and the ED50 ([35]; oral administration) was 66 mg/kg. For the same molecule, the MIC ([6]; Table XVI) was 0.13 µg/mL (≈ 0.0782 µM), the “Percent of Rats Cured” value ([7]; 1.0 mg/kg × 7, subcutaneous) was 78% and the “Percent of Rats with a 4-Log Titer Decrease” value ([7]; 1.0 mg/kg × 7, subcutaneous) was 78%. The LD50 ([36]; IV) was < 50 mg/kg, the LD50 ([36]; SC) was 70 to 75 mg/kg and the LD50 [37] was < 160 mg/kg. The “Bioassay (Micrococcus luteus)” value [38] was 803 units/mg.

Source: patent USRE32455E, “A-21978 antibiotics and process for their production” (priority 1985, dated 1987)
